Data reported in ChEMBL document CHEMBL1137055, “Pyrazolo[1,5-a]pyrimidines as estrogen receptor ligands: defining the orientation of a novel heterocyclic core” (Bioorg Med Chem Lett, 2004).

Columns and labels:
[1] = biological target: Estrogen receptor beta (Homo sapiens) (UniProt Q92731); experiment: Binding affinity for Estrogen receptor beta compared to estradiol (100%)
[2] = biological target: T1, Estrogen receptor (Homo sapiens) (UniProt P03372); experiment: Binding affinity for Estrogen receptor alpha compared to estradiol (100%)
T1 sequence (whole entry): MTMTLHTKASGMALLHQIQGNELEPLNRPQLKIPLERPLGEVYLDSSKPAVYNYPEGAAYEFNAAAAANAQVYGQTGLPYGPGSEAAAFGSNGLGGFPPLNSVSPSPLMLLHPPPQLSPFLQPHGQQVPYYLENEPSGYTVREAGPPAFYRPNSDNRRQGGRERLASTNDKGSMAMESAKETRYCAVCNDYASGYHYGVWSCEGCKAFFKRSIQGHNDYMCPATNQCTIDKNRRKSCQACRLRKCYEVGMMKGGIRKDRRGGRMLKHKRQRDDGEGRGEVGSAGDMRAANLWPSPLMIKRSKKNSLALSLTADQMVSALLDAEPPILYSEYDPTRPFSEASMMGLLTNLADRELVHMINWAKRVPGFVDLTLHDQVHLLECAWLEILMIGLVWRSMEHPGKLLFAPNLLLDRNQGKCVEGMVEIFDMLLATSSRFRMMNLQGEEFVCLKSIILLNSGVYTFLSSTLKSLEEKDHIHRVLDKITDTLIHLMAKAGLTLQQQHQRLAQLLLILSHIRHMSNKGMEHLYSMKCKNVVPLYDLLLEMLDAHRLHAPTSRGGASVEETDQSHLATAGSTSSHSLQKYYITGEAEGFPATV

Estrogen receptor beta (Homo sapiens), sequence (Q92731 whole entry): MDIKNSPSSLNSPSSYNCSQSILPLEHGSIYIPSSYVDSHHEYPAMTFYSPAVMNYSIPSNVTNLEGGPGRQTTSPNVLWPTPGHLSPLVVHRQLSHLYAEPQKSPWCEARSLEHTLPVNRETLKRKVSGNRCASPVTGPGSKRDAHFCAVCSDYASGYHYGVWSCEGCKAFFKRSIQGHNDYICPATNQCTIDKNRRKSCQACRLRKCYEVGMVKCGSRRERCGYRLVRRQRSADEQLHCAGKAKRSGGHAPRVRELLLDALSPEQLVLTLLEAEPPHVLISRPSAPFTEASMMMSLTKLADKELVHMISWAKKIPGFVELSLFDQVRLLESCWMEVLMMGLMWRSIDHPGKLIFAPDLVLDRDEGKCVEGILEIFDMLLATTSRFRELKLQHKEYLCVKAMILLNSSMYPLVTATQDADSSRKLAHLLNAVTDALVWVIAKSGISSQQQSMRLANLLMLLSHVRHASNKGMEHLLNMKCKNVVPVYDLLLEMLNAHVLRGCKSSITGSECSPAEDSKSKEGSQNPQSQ

Row | SMILES | Binding affinity [1] | Binding affinity [2]
1 | Oc1cnc2c(-c3ccccc3)c(-c3ccccc3)nn2c1 | 0.005% | –
2 | Oc1ccc(-c2c(-c3ccccc3)nn3cc(O)cnc23)cc1 | 0.006% | –
3 | Oc1ccc(-c2nn3cc(O)cnc3c2-c2ccccc2)cc1 | 0.01% | 0.003%
4 | Oc1ccc(-c2nn3cccnc3c2-c2ccccc2)cc1 | 0.05% | 0.01%

Now from value to compound:

Row | Binding affinity [1] | Binding affinity [2] | SMILES
5 | 0.02% | 0.007% | Oc1ccc(-c2c(-c3ccccc3)nn3cccnc23)cc1
6 | 0.1% | 0.004% | Oc1ccc(-c2nn3cccnc3c2-c2ccc(O)cc2)cc1
7 | 0.03% | 0.004% | Oc1ccc(-c2nn3cc(O)cnc3c2-c2ccc(O)cc2)cc1
